Patent US20090318396A1, “CORTICOSTEROID LINKED BETA-AGONIST COMPOUNDS FOR USE IN THERAPY” (priority 2008, published 2009)

Experiments:
[1] = tested on: Ascaris suum antigen-induced bronchoconstriction and airway hyperreactivity; experiment: Ascaris suum-induced pulmonary responses in sheep; format: in vivo
Experimental: (§1) One breath unit is defined as one breath of a 1% w/v carbachol solution. Test article was administered either by a pre-dosing or duration of action protocol. In the pre-dosing regimen, animals were dosed once daily for four days, with the last dose administered 1 hr before antigen. In the duration of action regimen, animals were dosed once daily for four days, with the last dose administered 24 hours before antigen. Test article, Ascaris antigen, and carbachol were administered by nebulized aerosol to intubated sheep.

[2] = tested on: ragweed-induced bronchoconstriction; experiment: Ragweed-induced bronchoconstriction in dogs; format: in vivo, beagle dogs; settings: mean ± s.e.m.
Experimental: The compound of Example 52 was assesed for bronchodilator activity in a ragweed-induced bronchoconstriction model in beagle dogs. Dogs were mechanically ventilated during each experiment. Airflow and tidal volume were measured using a differential pressure transducer located in front of the endotracheal tube. An esophageal balloon catheter placed in the esophagus was used to determine transpulmonary pressure. Pulmonary resistance and dynamic lung compliance were calculated from the simultaneous measurement of transpulmonary pressure and respiratory flow. The canine exposure system was designed to expose an anesthetized animal via an intubation tube. Dogs were administered vehicle or test article by inhalation 30 minutes before ragweed antigen exposure (n=4). Dogs were challenged with ragweed antigen (ragweed short, Ambrosia artemisifolia, Greer, Lenoir, N.C.) by inhalation (5 breaths). Immediately following ragweed challenge, changes in pulmonary resistance and compliance were measured for up to 30 minutes.

[3] = tested on: LPS-induced airway inflammation; experiment: LPS-induced airway inflammation in rats; format: in vivo, Male Fischer 344 rats; settings: for TNFα / Neutrophils: rat BAL, mean ± s.e.m.
Experimental: Example 52 was evaluated in an LPS-induced airway inflammation model in rats. Male Fischer 344 rats (n 8/group) were treated with either vehicle or test article by intratracheal instillation in […] volume 1 hour prior to LPS challenge. Animals were then exposed to LPS by nose-only inhalation exposure for 10 minutes at 5 mg/m^3 resulting in an estimated 5 μg lung deposition. Animals were sacrificed 4 hours after LPS exposure. Lungs were lavaged for bronchoalveolar lavage cell differentials and cytokine analysis by Luminex multiplex immunoassay.

[4] = tested on: carbachol-induced bronchoconstriction; experiment: Carbachol-induced bronchoconstriction in sheep; format: in vivo; settings: Example 52 4.7 mg, Salmeterol 2.5 mg, mean ± s.e.m, n=4
Experimental: as §1, with “Bronchoconstriction was evaluated” for “One breath unit is defined”, “a function” for “one breath”, “increased pulmonary resistance following” for “a 1% w/v”, “challenge. […]” for “solution.”, “carbachol challenge.” for “antigen.”, “article” for “article, Ascaris antigen,”

CC[N+](CC)(CC(=O)OCC(=O)[C@@]12O[C@H](C3CCCCC3)O[C@@H]1C[C@H]1[C@@H]3CCC4=CC(=O)C=C[C@]4(C)[C@H]3[C@@H](O)C[C@@]12C)Cc1cc(C(O)CNCCCCCCOCCCCc2ccccc2)ccc1OP(=O)(O)O.[Cl-] (stereo partly drawn) [Example 52, [5-[1-hydroxy-2-[6-(4-phenylbutoxy)hexylamino]ethyl]-2-phosphonooxybenzyl]-(diethyl)-[[11β,16α]-[[15,16-((R)-cyclohexylmethylene)bis(oxy)]-11-hydroxypregna-1,4-diene-3,20-dion-21-yl]carbonylmethyl]ammonium chloride]
Bronchoconstriction, Lung Resistance (% Increase) ([1]; Duration of action regimen (last dose 24 hours before antigen), Post-Ascaris, Example 52 4.7 mg, ciclesonide 2.2 mg, salmeterol xinafoate 2.5 mg, n=4): 226 % Increase
Bronchoconstriction, Lung Resistance (% Increase) ([1]; Duration of action regimen, 1 hour, n=4): 95 % Increase
Bronchoconstriction, Lung Resistance (% Increase) ([1]; Duration of action regimen, 2 hours, n=4): 47 % Increase
Bronchoconstriction, Lung Resistance (% Increase) ([1]; Duration of action regimen, 3 hours, n=4): 17 % Increase
Bronchoconstriction, Lung Resistance (% Increase) ([1]; Duration of action regimen, 4 hours, n=4): 14 % Increase
Bronchoconstriction, Lung Resistance (% Increase) ([1]; Duration of action regimen, 5 hours, n=4): 25 % Increase
Bronchoconstriction, Lung Resistance (% Increase) ([1]; Duration of action regimen, 6 hours, n=4): 31 % Increase
Bronchoconstriction, Lung Resistance (% Increase) ([1]; Duration of action regimen, 6.5 hours, n=4): 26 % Increase
Bronchoconstriction, Lung Resistance (% Increase) ([1]; Duration of action regimen, 7 hours, n=4): 26 % Increase
Bronchoconstriction, Lung Resistance (% Increase) ([1]; Duration of action regimen, 7.5 hours, n=4): 20 % Increase
Bronchoconstriction, Lung Resistance (% Increase) ([1]; Duration of action regimen, 8 hours, n=4): 22 % Increase
Hyperreactivity PC400 ([1]; Duration of action regimen, Baseline, Example 52 4.7 mg, ciclesonide 2.2 mg, salmeterol xinafoate 2.5 mg, n=4): 27.8 carbachol breath units
Hyperreactivity PC400 ([1]; Duration of action regimen, Post-Antigen, n=4): 28 carbachol breath units
Bronchoconstriction, Lung Resistance (% Increase) ([1]; Predosing regimen (last dose 1 hr before antigen), Post-Ascaris, Example 52 4.7 mg, ciclesonide 2.2 mg, n=2): 220 % Increase
Bronchoconstriction, Lung Resistance (% Increase) ([1]; Predosing regimen, 1 hour, n=2): 118 % Increase
Bronchoconstriction, Lung Resistance (% Increase) ([1]; Predosing regimen, 2 hours, n=2): 69 % Increase
Bronchoconstriction, Lung Resistance (% Increase) ([1]; Predosing regimen, 3 hours, n=2): 34 % Increase
Bronchoconstriction, Lung Resistance (% Increase) ([1]; Predosing regimen, 4 hours, n=2): 9 % Increase
Bronchoconstriction, Lung Resistance (% Increase) ([1]; Predosing regimen, 5 hours, n=2): 24 % Increase
Bronchoconstriction, Lung Resistance (% Increase) ([1]; Predosing regimen, 6 hours, n=2): 34 % Increase
Bronchoconstriction, Lung Resistance (% Increase) ([1]; Predosing regimen, 6.5 hours, n=2): 19 % Increase
Bronchoconstriction, Lung Resistance (% Increase) ([1]; Predosing regimen, 7 hours, n=2): 23 % Increase
Bronchoconstriction, Lung Resistance (% Increase) ([1]; Predosing regimen, 7.5 hours, n=2): 28 % Increase
Bronchoconstriction, Lung Resistance (% Increase) ([1]; Predosing regimen, 8 hours, n=2): 14 % Increase
Hyperreactivity PC400 ([1]; Predosing regimen, Baseline, Example 52 4.7 mg, ciclesonide 2.2 mg, n=2): 27.5 carbachol breath units
Hyperreactivity PC400 ([1]; Predosing regimen, Post-Antigen (24 hours after challenge), n=2): 26.0 carbachol breath units
Effect on early phase bronchoconstriction ([1]; duration of action regimen): reduction
Effect on late phase bronchoconstriction and development of airway hyperreactivity ([1]; duration of action regimen): complete inhibition
Pulmonary Resistance (% of Baseline) ([2]; 6 μg/kg by inhalation): 266.1 ± 19.6 % of Baseline
Pulmonary Resistance (% of Baseline) ([2]; 20 μg/kg by inhalation): 181.2 ± 11.5 % of Baseline
TNFα ([3]; 0.6 mg/kg intratracheal): 293.6 ± 40.6 pg/mL
TNFα ([3]; 1 mg/kg intratracheal): 361.7 ± 56.6 pg/mL
Neutrophils ([3]; 3 mg/kg intratracheal, 1 hour prior to LPS): 13.5 ± 0.92 × 10^4/ml
TNFα ([3]; 3 mg/kg intratracheal): 307.0 ± 60.0 pg/mL
Neutrophils ([3]; 6 mg/kg intratracheal): 6.4 ± 0.41 × 10^4/ml
Inhibition of LPS-induced airway inflammation measured as neutrophil influx and TNFα production ([3]; at doses tested, versus vehicle control): significantly inhibit
Lung Resistance (% Increase) at 2% Carbachol ([4]; Duration of action regimen (last dose 24 hours before carbachol), Ciclesonide 2.2 mg + Salmeterol Xinafoate 2.5 mg): 450 ± 36 % Increase
Lung Resistance (% Increase) at 2% Carbachol ([4]; Predosing regimen (last dose 1 hr before carbachol)): 335 ± 38 % Increase
